Data: PubChem BioAssay (NCI)
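Compound exposure: 48 hours, 5 concentrations, 96-well plates. TGI marks complete inhibition of growth.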

What was measured:
Experiment in all cases: inhibition of tumour cell growth, NCI panel, 48 h
786-0 renal = test system: 786-0 renal
A498 renal = test system: A498 renal
A549 NSCLC = test system: A549 NSCLC
ACHN renal = test system: ACHN renal
CAKI-1 renal = test system: CAKI-1 renal
COLO 205 colon = test system: COLO 205 colon
DLD-1 colon = test system: DLD-1 colon
DMS 114 small cell lung = test system: DMS 114 small cell lung
DMS 273 small cell lung = test system: DMS 273 small cell lung
EKVX NSCLC = test system: EKVX NSCLC
HCT-116 colon = test system: HCT-116 colon
HCT-15 colon = test system: HCT-15 colon
HL-60(TB) leukemia = test system: HL-60(TB) leukemia
HOP-18 NSCLC = test system: HOP-18 NSCLC
HOP-62 NSCLC = test system: HOP-62 NSCLC
HOP-92 NSCLC = test system: HOP-92 NSCLC
HT29 colon = test system: HT29 colon
IGROV1 ovarian = test system: IGROV1 ovarian
K-562 leukemia = test system: K-562 leukemia
KM12 colon = test system: KM12 colon
KM20L2 colon = test system: KM20L2 colon
LXFL 529 NSCLC = test system: LXFL 529 NSCLC
M14 melanoma = test system: M14 melanoma
M19-MEL melanoma = test system: M19-MEL melanoma
MALME-3M melanoma = test system: MALME-3M melanoma
NCI-H226 lung = test system: NCI-H226 lung
NCI-H23 lung = test system: NCI-H23 lung
NCI-H460 lung = test system: NCI-H460 lung
NCI-H522 lung = test system: NCI-H522 lung
OVCAR-3 ovarian = test system: OVCAR-3 ovarian
OVCAR-4 ovarian = test system: OVCAR-4 ovarian
OVCAR-5 ovarian = test system: OVCAR-5 ovarian
OVCAR-8 ovarian = test system: OVCAR-8 ovarian
RPMI-8226 leukemia = test system: RPMI-8226 leukemia
SF-295 CNS = test system: SF-295 CNS
SF-539 CNS = test system: SF-539 CNS
SK-MEL-2 melanoma = test system: SK-MEL-2 melanoma
SK-MEL-28 melanoma = test system: SK-MEL-28 melanoma
SK-MEL-5 melanoma = test system: SK-MEL-5 melanoma
SK-OV-3 ovarian = test system: SK-OV-3 ovarian
SN12C renal = test system: SN12C renal
SNB-19 CNS = test system: SNB-19 CNS
SNB-75 CNS = test system: SNB-75 CNS
SNB-78 CNS = test system: SNB-78 CNS
SR leukemia = test system: SR leukemia
SW-620 colon = test system: SW-620 colon
U251 CNS = test system: U251 CNS
UACC-257 melanoma = test system: UACC-257 melanoma
UO-31 renal = test system: UO-31 renal
CCRF-CEM leukemia = test system: CCRF-CEM leukemia
HCC-2998 colon = test system: HCC-2998 colon
MOLT-4 leukemia = test system: MOLT-4 leukemia
RXF 393 renal = test system: RXF 393 renal
SF-268 CNS = test system: SF-268 CNS
UACC-62 melanoma = test system: UACC-62 melanoma

In the case of `COc1ccc2c(c1)[n+]([O-])c(-c1ccc(C)cc1)c(N)[n+]2[O-]`, the TGI (786-0 renal) is reported as greater than 100 µM, the TGI (A498 renal) is reported as greater than 100 µM and the TGI (A549 NSCLC) is reported as greater than 100 µM. The TGI (ACHN renal) was greater than 100 µM, the TGI (CAKI-1 renal) was greater than 100 µM and the TGI (COLO 205 colon) was 36.4 µM. For the same compound, the TGI (DLD-1 colon) was greater than 100 µM, the TGI (DMS 114 small cell lung) was 61.4 µM and the TGI (DMS 273 small cell lung) was greater than 100 µM. It also gave a TGI (EKVX NSCLC) greater than 100 µM, a TGI (HCT-116 colon) greater than 100 µM and a TGI (HCT-15 colon) greater than 100 µM. It also gave a TGI (HL-60(TB) leukemia) greater than 100 µM, a TGI (HOP-18 NSCLC) greater than 100 µM and a TGI (HOP-62 NSCLC) greater than 100 µM. The TGI (HOP-92 NSCLC) was greater than 100 µM, the TGI (HT29 colon) was greater than 100 µM and the TGI (IGROV1 ovarian) was greater than 100 µM. It also gave a TGI (K-562 leukemia) greater than 100 µM, a TGI (KM12 colon) greater than 100 µM and a TGI (KM20L2 colon) greater than 100 µM. For the same compound, the TGI (LXFL 529 NSCLC) was greater than 100 µM, the TGI (M14 melanoma) was greater than 100 µM and the TGI (M19-MEL melanoma) was greater than 100 µM. It also gave a TGI (MALME-3M melanoma) greater than 100 µM, a TGI (NCI-H226 lung) greater than 100 µM and a TGI (NCI-H23 lung) of 48.3 µM. For the same compound, the TGI (NCI-H460 lung) was greater than 100 µM, the TGI (NCI-H522 lung) was 30.3 µM and the TGI (OVCAR-3 ovarian) was greater than 100 µM. The TGI (OVCAR-4 ovarian) was greater than 100 µM, the TGI (OVCAR-5 ovarian) was greater than 100 µM and the TGI (OVCAR-8 ovarian) was greater than 100 µM. It also gave a TGI (RPMI-8226 leukemia) greater than 100 µM, a TGI (SF-295 CNS) greater than 100 µM and a TGI (SF-539 CNS) greater than 100 µM. The TGI (SK-MEL-2 melanoma) was greater than 100 µM, the TGI (SK-MEL-28 melanoma) was greater than 100 µM and the TGI (SK-MEL-5 melanoma) was greater than 100 µM. It also gave a TGI (SK-OV-3 ovarian) greater than 100 µM, a TGI (SN12C renal) greater than 100 µM and a TGI (SNB-19 CNS) greater than 100 µM. It also gave a TGI (SNB-75 CNS) greater than 100 µM, a TGI (SNB-78 CNS) greater than 100 µM and a TGI (SR leukemia) greater than 100 µM. It also gave a TGI (SW-620 colon) greater than 100 µM, a TGI (U251 CNS) greater than 100 µM and a TGI (UACC-257 melanoma) of 62 µM. The TGI (UO-31 renal) was greater than 100 µM.
Compound `CC12CO[C@@](C)(CC(S(=O)(=O)c3ccccc3)C1)O2` (stereo partly specified) has a TGI (786-0 renal) greater than 100 µM, a TGI (A549 NSCLC) greater than 100 µM and a TGI (ACHN renal) greater than 100 µM. For the same compound, the TGI (CCRF-CEM leukemia) was greater than 100 µM, the TGI (COLO 205 colon) was greater than 100 µM and the TGI (DLD-1 colon) was greater than 100 µM. The TGI (DMS 114 small cell lung) was greater than 100 µM, the TGI (DMS 273 small cell lung) was greater than 100 µM and the TGI (EKVX NSCLC) was greater than 100 µM. For the same compound, the TGI (HCC-2998 colon) was greater than 100 µM, the TGI (HCT-116 colon) was greater than 100 µM and the TGI (HCT-15 colon) was greater than 100 µM. The TGI (HL-60(TB) leukemia) was greater than 100 µM, the TGI (HOP-18 NSCLC) was greater than 100 µM and the TGI (HOP-62 NSCLC) was greater than 100 µM. It also gave a TGI (HOP-92 NSCLC) greater than 100 µM, a TGI (HT29 colon) greater than 100 µM and a TGI (IGROV1 ovarian) greater than 100 µM. For the same compound, the TGI (K-562 leukemia) was greater than 100 µM, the TGI (KM12 colon) was greater than 100 µM and the TGI (KM20L2 colon) was greater than 100 µM. It also gave a TGI (LXFL 529 NSCLC) greater than 100 µM, a TGI (M14 melanoma) greater than 100 µM and a TGI (M19-MEL melanoma) greater than 100 µM. The TGI (MALME-3M melanoma) was greater than 100 µM, the TGI (MOLT-4 leukemia) was greater than 100 µM and the TGI (NCI-H23 lung) was greater than 100 µM. For the same compound, the TGI (NCI-H460 lung) was greater than 100 µM, the TGI (NCI-H522 lung) was greater than 100 µM and the TGI (OVCAR-3 ovarian) was greater than 100 µM. It also gave a TGI (OVCAR-4 ovarian) greater than 100 µM, a TGI (OVCAR-5 ovarian) greater than 100 µM and a TGI (OVCAR-8 ovarian) greater than 100 µM. It also gave a TGI (RPMI-8226 leukemia) greater than 100 µM, a TGI (RXF 393 renal) greater than 100 µM and a TGI (SF-268 CNS) greater than 100 µM. It also gave a TGI (SF-295 CNS) greater than 100 µM, a TGI (SF-539 CNS) greater than 100 µM and a TGI (SK-MEL-2 melanoma) greater than 100 µM. For the same compound, the TGI (SK-MEL-28 melanoma) was greater than 100 µM, the TGI (SK-MEL-5 melanoma) was greater than 100 µM and the TGI (SK-OV-3 ovarian) was greater than 100 µM. It also gave a TGI (SN12C renal) greater than 100 µM, a TGI (SNB-19 CNS) greater than 100 µM and a TGI (SNB-75 CNS) greater than 100 µM. For the same compound, the TGI (SNB-78 CNS) was greater than 100 µM, the TGI (SR leukemia) was greater than 100 µM and the TGI (SW-620 colon) was greater than 100 µM. It also gave a TGI (U251 CNS) greater than 100 µM, a TGI (UACC-257 melanoma) greater than 100 µM and a TGI (UACC-62 melanoma) greater than 100 µM. For the same compound, the TGI (UO-31 renal) was greater than 100 µM.
